Source: US20040077880A1 (priority 2000, published 2004)

Tested on: not listed separately
Experiment: logP determination by HPLC (EEC Directive 79/831 Annex V. A8)
Assay type: physicochemical
Conditions: gradient method, acetonitrile/0,1% aqueous phosphoric acid
Method: The logP values were determined in accordance with EEC Directive 79/831 Annex V. A8 by HPLC (Gradient method, acetonitrile/0,1% aqueous phosphoric acid)

Row | SMILES | chromatographic logP
1 | Cc1noc(C)c1S(=O)(=O)n1c(Br)c(Br)c(Br)c1C#N [Example 3] | 3.58
2 | Cc1noc(C)c1S(=O)(=O)n1c(C)c(Br)c(Br)c1C#N [Example 1, 3,4-dibromo-1-[(3,5-dimethyl-4-isoxazolyl)-sulfonyl]-5-methyl-1H-pyrrole-2-carbonitrile] | 3.62
3 | Cc1noc(C)c1S(=O)(=O)n1cc(Cl)c(Cl)c1C#N [Example 11] | 3.13

Tested on: Phytophthora infestans
Experiment: not given
Assay type: in vivo
Conditions: tomato plants, protective spray, application rate 50 g/ha, evaluation three days after inoculation; 100% = no infection

Row | SMILES | Efficacy in %
4 | Cc1noc(C)c1S(=O)(=O)n1c(Br)c(Br)c(Br)c1C#N [drawing 9] | 98%
5 | Cc1noc(C)c1S(=O)(=O)n1cc(Cl)c(Cl)c1C#N [drawing 11] | 94%
6 | Cc1noc(C)c1S(=O)(=O)n1cc(Cl)c(Cl)c1C#N [drawing 10] | 95%
